Data taken from US12227500B2, “Substituted pyrrolo[2,3-b]pyridines for suppressing toxic endoplasmic reticulum stress” (THE TRUSTEES OF COLUMBIA UNIVERSITY IN THE CITY OF NEW YORK, priority 2018, dated 2025).
Like-named read-outs stand apart in the source and are kept apart here.

Key:
Assay in all cases: Radiolabeled ATP kinase assay, panel of 371 kinases (Table S6)
Assay type in all cases: biochemical
[1] = target: T1, panel of 371 human kinases (Homo sapiens, UniProt Q00536); settings: CDK16/cyclin Y (PCTAIRE); 0.1 μM; 10 μM ATP; read-out: % Enzyme Activity (relative to DMSO controls)
T1 construct: purchased Reaction Biology Corp
From the text: (§1) ; FIG. 38C). […]. Further targeted analyses, such as genetic knock-down or knock-out, may be warranted to parse the role of these additional kinases in our model of neurodegeneration.

[2] = target: T2, panel of 371 human kinases (Homo sapiens, UniProt P50613); settings: CDK7/cyclin H; 0.1 μM; 10 μM ATP; read-out: % Enzyme Activity (relative to DMSO controls)
T2 construct: purchased Reaction Biology Corp
From the text: as §1

[3] = target: T3, panel of 371 human kinases (Homo sapiens, UniProt P57059); settings: SIK1; 0.1 μM; 10 μM ATP; read-out: % Enzyme Activity (relative to DMSO controls)
T3 construct: purchased Reaction Biology Corp
From the text: as §1

[4] = target: T4, panel of 371 human kinases (Homo sapiens, UniProt P22455); settings: FGFR4; 0.1 μM; 10 μM ATP; read-out: % Enzyme Activity (relative to DMSO controls)
T4 construct: purchased Reaction Biology Corp
From the text: as §1

[5] = target: T5, panel of 371 human kinases (Homo sapiens, UniProt P06213); settings: IR; 0.1 μM; 10 μM ATP; read-out: % Enzyme Activity (relative to DMSO controls)
T5 construct: purchased Reaction Biology Corp
From the text: as §1

[6] = target: T6, panel of 371 human kinases (Homo sapiens, UniProt O95747); settings: OSR1/OXSR1; 0.1 μM; 10 μM ATP; read-out: % Enzyme Activity (relative to DMSO controls)
T6 construct: purchased Reaction Biology Corp
From the text: as §1

[7] = target: T7, panel of 371 human kinases (Homo sapiens, UniProt Q16513); settings: PKN2/PRK2; 0.1 μM; 10 μM ATP; read-out: % Enzyme Activity (relative to DMSO controls)
T7 construct: purchased Reaction Biology Corp
From the text: as §1

[8] = target: T8, panel of 371 human kinases (Homo sapiens, UniProt P50750); settings: 0.1 μM, 10 μM ATP, read-out: % Enzyme Activity (relative to DMSO controls)
T8 construct: purchased Reaction Biology Corp
From the text: as §1

[9] = target: T9, panel of 371 human kinases (Homo sapiens, UniProt Q9NY57); settings: STK32B/YANK2; 0.1 μM; 10 μM ATP; read-out: % Enzyme Activity (relative to DMSO controls)
T9 construct: purchased Reaction Biology Corp
From the text: as §1

[10] = target: T10, panel of 371 human kinases (Homo sapiens, UniProt P49759); settings: CLK1; 0.1 μM; 10 μM ATP; read-out: % Enzyme Activity (relative to DMSO controls)
T10 construct: purchased Reaction Biology Corp
From the text: as §1

[11] = target: T11, panel of 371 human kinases (Homo sapiens, UniProt P32298); settings: GRK4; 0.1 μM; 10 μM ATP; read-out: % Enzyme Activity (relative to DMSO controls)
T11 construct: purchased Reaction Biology Corp
From the text: as §1

[12] = target: T12, panel of 371 human kinases (Homo sapiens, UniProt Q15418); settings: RSK1; 0.1 μM; 10 μM ATP; read-out: % Enzyme Activity (relative to DMSO controls)
T12 construct: purchased Reaction Biology Corp
From the text: as §1

[13] = target: T13, panel of 371 human kinases (Homo sapiens, UniProt P68400); settings: CK2a; 0.1 μM; 10 μM ATP; read-out: % Enzyme Activity (relative to DMSO controls)
T13 construct: purchased Reaction Biology Corp
From the text: as §1

[14] = target: T14, panel of 371 human kinases (Homo sapiens, UniProt O14965); settings: Aurora A; 0.1 μM; 10 μM ATP; read-out: % Enzyme Activity (relative to DMSO controls)
T14 construct: purchased Reaction Biology Corp
From the text: as §1

[15] = target: T15, panel of 371 human kinases (Homo sapiens, UniProt Q9UPE1); settings: MSSK1/STK23; 0.1 μM; 10 μM ATP; read-out: % Enzyme Activity (relative to DMSO controls)
T15 construct: purchased Reaction Biology Corp
From the text: as §1

[16] = target: T16, panel of 371 human kinases (Homo sapiens, UniProt P36894); settings: ALK1/BMPR1A; 0.1 μM; 10 μM ATP; read-out: % Enzyme Activity (relative to DMSO controls)
T16 construct: purchased Reaction Biology Corp
From the text: as §1

[17] = target: T17, panel of 371 human kinases (Homo sapiens, UniProt Q9H2K8); settings: TAOK3/JIK; 0.1 μM; 10 μM ATP; read-out: % Enzyme Activity (relative to DMSO controls)
T17 construct: purchased Reaction Biology Corp
From the text: as §1

[18] = target: T18, panel of 371 human kinases (Homo sapiens, UniProt O15075); settings: DCAMKL1; 0.1 μM; 10 μM ATP; read-out: % Enzyme Activity (relative to DMSO controls)
T18 construct: purchased Reaction Biology Corp
From the text: as §1

[19] = target: T19, panel of 371 human kinases (Homo sapiens, UniProt P17948); settings: FLT1/VEGFR1; 0.1 μM; 10 μM ATP; read-out: % Enzyme Activity (relative to DMSO controls)
T19 construct: purchased Reaction Biology Corp
From the text: as §1

[20] = target: T20, panel of 371 human kinases (Homo sapiens, UniProt Q96L34); settings: MARK4; 0.1 μM; 10 μM ATP; read-out: % Enzyme Activity (relative to DMSO controls)
T20 construct: purchased Reaction Biology Corp
From the text: as §1

[21] = target: T21, panel of 371 human kinases (Homo sapiens, UniProt Q16584); settings: for remaining activity at 0.1 µM: MLK3/MAP3K11, 10 μM ATP, read-out: % Enzyme Activity (relative to DMSO controls)
T21 construct: purchased Reaction Biology Corp
From the text: as §1

[22] = target: T22, panel of 371 human kinases (Homo sapiens, UniProt Q96RG2); settings: PASK; 0.1 μM; 10 μM ATP; read-out: % Enzyme Activity (relative to DMSO controls)
T22 construct: purchased Reaction Biology Corp
From the text: as §1

[23] = target: T23, panel of 371 human kinases (Homo sapiens, UniProt Q8N4C8); settings: for remaining activity at 0.1 µM: MINK/MINK1, 10 μM ATP, read-out: % Enzyme Activity (relative to DMSO controls)
T23 construct: purchased Reaction Biology Corp
From the text: as §1

[24] = target: T24, panel of 371 human kinases (Homo sapiens, UniProt Q9P0L2); settings: MARK1; 0.1 μM; 10 μM ATP; read-out: % Enzyme Activity (relative to DMSO controls)
T24 construct: purchased Reaction Biology Corp
From the text: as §1

T8 sequence (P50750 whole entry): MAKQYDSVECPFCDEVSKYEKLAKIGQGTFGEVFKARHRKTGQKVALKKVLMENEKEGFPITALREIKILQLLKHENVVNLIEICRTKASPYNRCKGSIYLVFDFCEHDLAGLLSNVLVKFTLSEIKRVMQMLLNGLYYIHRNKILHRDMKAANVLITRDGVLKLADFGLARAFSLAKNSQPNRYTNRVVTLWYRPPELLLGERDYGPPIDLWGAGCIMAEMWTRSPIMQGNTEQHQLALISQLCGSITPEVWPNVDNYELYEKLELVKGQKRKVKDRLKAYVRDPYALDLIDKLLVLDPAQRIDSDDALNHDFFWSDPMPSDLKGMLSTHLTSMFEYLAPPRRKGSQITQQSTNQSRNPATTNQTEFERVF
T21 sequence (Q16584 whole entry): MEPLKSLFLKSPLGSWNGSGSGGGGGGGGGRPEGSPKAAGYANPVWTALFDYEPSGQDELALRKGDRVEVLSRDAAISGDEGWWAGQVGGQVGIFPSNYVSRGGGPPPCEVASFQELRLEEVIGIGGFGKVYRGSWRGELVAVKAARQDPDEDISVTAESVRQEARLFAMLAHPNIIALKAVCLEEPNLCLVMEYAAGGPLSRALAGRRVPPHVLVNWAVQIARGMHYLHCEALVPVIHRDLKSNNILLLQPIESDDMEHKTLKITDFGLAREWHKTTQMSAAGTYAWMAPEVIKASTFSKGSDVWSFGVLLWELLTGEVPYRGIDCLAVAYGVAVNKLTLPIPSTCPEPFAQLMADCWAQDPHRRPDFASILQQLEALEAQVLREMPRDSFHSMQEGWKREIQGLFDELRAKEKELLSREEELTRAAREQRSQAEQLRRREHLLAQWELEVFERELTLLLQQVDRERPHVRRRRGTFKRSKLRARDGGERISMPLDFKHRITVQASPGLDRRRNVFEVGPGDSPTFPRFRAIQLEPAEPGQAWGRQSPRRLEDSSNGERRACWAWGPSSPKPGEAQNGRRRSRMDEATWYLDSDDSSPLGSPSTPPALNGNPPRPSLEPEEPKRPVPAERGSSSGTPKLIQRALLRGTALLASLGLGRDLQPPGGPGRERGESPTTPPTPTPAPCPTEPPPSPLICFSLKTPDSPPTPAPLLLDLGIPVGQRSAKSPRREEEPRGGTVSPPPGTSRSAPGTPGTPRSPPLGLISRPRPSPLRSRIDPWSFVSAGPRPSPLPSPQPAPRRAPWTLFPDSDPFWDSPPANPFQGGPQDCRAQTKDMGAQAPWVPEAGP
T23 sequence (Q8N4C8 whole entry): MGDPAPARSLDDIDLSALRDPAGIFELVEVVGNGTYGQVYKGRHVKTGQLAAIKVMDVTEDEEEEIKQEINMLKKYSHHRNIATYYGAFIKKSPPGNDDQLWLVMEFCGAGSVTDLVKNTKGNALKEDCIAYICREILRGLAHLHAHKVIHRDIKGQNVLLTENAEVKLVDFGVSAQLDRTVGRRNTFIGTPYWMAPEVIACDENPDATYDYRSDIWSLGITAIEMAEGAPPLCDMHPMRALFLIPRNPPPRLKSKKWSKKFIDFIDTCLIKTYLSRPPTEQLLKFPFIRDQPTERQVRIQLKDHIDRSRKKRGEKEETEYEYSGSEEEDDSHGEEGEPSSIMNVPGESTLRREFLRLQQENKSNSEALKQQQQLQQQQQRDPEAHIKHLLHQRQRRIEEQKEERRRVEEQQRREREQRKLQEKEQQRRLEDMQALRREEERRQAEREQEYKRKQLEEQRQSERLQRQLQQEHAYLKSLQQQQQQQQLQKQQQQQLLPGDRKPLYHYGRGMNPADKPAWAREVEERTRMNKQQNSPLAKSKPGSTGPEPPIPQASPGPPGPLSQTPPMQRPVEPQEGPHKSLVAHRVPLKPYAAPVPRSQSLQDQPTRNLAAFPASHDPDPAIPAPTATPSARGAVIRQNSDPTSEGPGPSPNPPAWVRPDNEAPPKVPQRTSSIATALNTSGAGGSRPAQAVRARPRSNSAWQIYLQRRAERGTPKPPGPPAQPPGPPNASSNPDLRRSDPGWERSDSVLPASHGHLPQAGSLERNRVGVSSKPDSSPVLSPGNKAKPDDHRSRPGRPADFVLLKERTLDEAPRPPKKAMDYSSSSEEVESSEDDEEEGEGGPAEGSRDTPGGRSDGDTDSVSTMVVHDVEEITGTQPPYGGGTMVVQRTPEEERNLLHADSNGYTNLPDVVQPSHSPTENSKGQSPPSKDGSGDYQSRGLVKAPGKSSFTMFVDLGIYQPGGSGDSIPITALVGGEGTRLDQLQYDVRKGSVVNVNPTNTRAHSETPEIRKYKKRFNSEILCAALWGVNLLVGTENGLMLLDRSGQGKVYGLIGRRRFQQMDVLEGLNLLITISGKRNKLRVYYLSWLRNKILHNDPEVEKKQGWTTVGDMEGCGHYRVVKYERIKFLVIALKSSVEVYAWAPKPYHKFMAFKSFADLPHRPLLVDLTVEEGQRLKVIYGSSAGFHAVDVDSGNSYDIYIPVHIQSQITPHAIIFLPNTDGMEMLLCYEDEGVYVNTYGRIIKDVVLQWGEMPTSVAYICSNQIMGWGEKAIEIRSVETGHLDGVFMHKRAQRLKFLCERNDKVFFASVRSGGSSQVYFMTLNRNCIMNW
T3 sequence (P57059 whole entry): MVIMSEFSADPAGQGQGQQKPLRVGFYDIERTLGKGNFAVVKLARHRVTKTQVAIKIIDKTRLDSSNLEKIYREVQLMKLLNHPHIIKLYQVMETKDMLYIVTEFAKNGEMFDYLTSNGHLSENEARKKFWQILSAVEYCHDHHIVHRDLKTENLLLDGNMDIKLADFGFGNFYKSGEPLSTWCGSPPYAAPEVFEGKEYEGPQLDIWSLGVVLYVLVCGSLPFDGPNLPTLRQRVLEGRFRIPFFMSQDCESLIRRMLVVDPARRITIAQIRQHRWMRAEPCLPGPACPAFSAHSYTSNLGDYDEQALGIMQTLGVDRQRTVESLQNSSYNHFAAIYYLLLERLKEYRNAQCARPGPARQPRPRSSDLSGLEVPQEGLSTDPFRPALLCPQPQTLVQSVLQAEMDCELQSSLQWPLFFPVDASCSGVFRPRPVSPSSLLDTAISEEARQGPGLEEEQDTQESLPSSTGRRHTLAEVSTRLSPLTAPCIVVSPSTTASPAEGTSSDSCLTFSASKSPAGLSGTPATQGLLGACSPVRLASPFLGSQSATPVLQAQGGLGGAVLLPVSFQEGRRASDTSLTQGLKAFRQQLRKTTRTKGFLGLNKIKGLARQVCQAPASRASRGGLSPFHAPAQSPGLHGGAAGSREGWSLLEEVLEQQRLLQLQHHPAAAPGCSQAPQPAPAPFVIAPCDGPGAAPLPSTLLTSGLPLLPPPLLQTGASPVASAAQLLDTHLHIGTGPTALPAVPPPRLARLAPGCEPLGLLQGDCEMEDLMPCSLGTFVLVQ
T17 sequence (Q9H2K8 whole entry): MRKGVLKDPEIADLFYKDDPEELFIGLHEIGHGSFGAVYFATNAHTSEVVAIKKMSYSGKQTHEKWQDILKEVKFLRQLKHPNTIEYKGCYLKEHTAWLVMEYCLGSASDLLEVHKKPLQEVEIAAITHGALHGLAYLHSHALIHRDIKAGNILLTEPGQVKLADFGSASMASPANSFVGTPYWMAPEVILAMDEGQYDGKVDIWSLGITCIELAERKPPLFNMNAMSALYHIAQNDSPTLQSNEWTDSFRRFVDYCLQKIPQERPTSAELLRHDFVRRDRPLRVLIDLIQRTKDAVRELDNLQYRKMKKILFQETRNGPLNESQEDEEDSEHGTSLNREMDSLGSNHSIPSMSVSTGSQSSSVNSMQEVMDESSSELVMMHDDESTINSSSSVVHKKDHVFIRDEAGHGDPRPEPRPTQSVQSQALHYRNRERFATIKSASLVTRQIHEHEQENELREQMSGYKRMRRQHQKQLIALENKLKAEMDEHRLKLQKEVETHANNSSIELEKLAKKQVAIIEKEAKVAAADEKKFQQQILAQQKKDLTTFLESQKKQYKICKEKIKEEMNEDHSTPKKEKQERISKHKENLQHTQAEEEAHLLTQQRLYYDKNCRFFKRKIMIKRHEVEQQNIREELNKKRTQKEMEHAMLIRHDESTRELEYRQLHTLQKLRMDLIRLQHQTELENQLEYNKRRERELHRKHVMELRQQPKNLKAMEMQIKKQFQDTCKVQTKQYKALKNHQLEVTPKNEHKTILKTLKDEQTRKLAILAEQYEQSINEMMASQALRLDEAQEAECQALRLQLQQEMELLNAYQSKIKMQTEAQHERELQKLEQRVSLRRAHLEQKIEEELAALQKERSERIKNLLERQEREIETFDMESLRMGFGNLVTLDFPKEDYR
T18 sequence (O15075 whole entry): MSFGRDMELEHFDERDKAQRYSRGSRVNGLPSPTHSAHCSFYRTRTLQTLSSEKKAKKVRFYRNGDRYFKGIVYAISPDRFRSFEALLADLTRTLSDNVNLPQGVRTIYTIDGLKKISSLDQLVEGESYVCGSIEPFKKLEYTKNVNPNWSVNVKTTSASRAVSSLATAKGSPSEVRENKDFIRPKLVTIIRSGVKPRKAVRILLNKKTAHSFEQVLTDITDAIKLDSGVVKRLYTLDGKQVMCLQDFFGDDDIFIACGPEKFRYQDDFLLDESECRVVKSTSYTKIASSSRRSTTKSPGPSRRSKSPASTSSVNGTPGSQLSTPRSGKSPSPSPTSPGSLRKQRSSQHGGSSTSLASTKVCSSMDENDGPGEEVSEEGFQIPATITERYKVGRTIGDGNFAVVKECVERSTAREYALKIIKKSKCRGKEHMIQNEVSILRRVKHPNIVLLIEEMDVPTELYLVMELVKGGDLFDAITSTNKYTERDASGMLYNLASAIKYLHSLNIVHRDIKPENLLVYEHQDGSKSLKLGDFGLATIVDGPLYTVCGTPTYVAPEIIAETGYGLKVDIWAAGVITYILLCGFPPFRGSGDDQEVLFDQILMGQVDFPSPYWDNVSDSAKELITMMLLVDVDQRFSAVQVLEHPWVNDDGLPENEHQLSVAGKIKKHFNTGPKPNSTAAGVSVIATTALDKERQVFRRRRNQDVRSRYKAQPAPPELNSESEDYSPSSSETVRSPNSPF

Compound | remaining activity at 0.1 µM [1] [%] | remaining activity at 0.1 µM [2] [%] | remaining activity at 0.1 µM [3] [%] | remaining activity at 0.1 µM [4] [%] | remaining activity at 0.1 µM [5] [%] | remaining activity at 0.1 µM [6] [%] | remaining activity at 0.1 µM [7] [%] | remaining activity at 0.1 µM ([8]; CDK9/cyclin K) [%] | remaining activity at 0.1 µM ([8]; CDK9/cyclin T1) [%] | remaining activity at 0.1 µM ([8]; CDK9/cyclin T2) [%] | remaining activity at 0.1 µM [9] [%] | remaining activity at 0.1 µM [10] [%] | remaining activity at 0.1 µM [11] [%] | remaining activity at 0.1 µM [12] [%] | remaining activity at 0.1 µM [13] [%] | remaining activity at 0.1 µM [14] [%] | remaining activity at 0.1 µM [15] [%] | remaining activity at 0.1 µM [16] [%] | remaining activity at 0.1 µM [17] [%] | remaining activity at 0.1 µM [18] [%] | further results
OCCN1CCN(Cc2ccc(-c3cnc4[nH]cc(-c5cccc(Cl)c5)c4c3)cc2)CC1 [Compound 12k, 2-(4-(4-(3-(3-Chlorophenyl)-1H-pyrrolo[2,3-b]pyridin-5-yl)benzyl)piperazin-1-yl)ethan-1-ol] | 97.3 | 89.2 | 106 | 100 | 112 | 97.1 | 59.5 | 88.5 | 88.7 | 99.1 | 88.5 | 68.6 | 106 | 90 | 110 | 104 | 103 | 96.8 | 79.8 | 94.2 | remaining activity at 0.1 µM [19]: 90.9%; remaining activity at 0.1 µM [20]: 40%; remaining activity at 0.1 µM [21]: 67%; remaining activity at 0.1 µM [22]: 90.1%; fold change in MINK1 activity following 12k exposure relative to 1 ([23]; 0.025 μM): 22.56 fold; remaining activity at 0.1 µM [23]: -0.71%; remaining activity at 0.1 µM [24]: 52.5%
CN1CCN(Cc2ccc(-c3cnc4[nH]cc(-c5ccc6[nH]ccc6c5)c4c3)cc2)CC1 [Compound 1, 3-(1H-Indol-5-yl)-5-(4-((4-methylpiperazin-1-yl)methyl)phenyl)-1H-pyrrolo[2,3-b]pyridine, reference compound] | 130 | 91.4 | 102 | 97.2 | 100 | 102 | 81.6 | 79.8 | 86 | 112 | 97 | 58.8 | 106 | 85.4 | 100 | 95.2 | 112 | 97 | 87.3 | 97.2 | remaining activity at 0.1 µM [19]: 88.2%; remaining activity at 0.1 µM [20]: 76%; remaining activity at 0.025 µM ([21]; 0.025 μM, read-out: MLK3 activity remaining): 56.4%; remaining activity at 0.1 µM [21]: 56.4%; remaining activity at 0.1 µM [22]: 78%; remaining activity at 0.1 µM [23]: 22.6%; remaining activity at 0.1 µM [24]: 86.2%
